# Calls of active or inactive are those of the source. No cut-off for these calls is given here.
# Tests used:
# [1] = system: Cladosporium cucumerinum; experiment: Antifungal activity against Cladosporium cucumerinum at 0.4 umol after 2 days; assay type: functional
# [2] = system: Cladosporium cucumerinum; experiment: Antifungal activity against Cladosporium cucumerinum at 0.2 umol after 2 days; assay type: functional
# [3] = system: Cladosporium cucumerinum; experiment: Antifungal activity against Cladosporium cucumerinum at 0.8 umol after 2 days; assay type: functional
# [4] = system: Cladosporium cucumerinum; experiment: Antifungal activity against Cladosporium cucumerinum at 0.1 umol after 2 days; assay type: functional
# [5] = Toxicity in Artemia salina after 48 hrs; assay type: organism-based; settings: in vivo
# [6] = system: Bacillus subtilis; experiment: Antibacterial activity against Bacillus subtilis 168 after 24 hrs by agar diffusion assay; assay type: functional, subsp. subtilis str. 168
# [7] = system: Staphylococcus aureus; experiment: Antibacterial activity against Staphylococcus aureus […] after 24 hrs by agar diffusion assay; assay type: functional, organism-based
# [8] = system: Saccharomyces cerevisiae; experiment: Antifungal activity against Saccharomyces cerevisiae after 2 days; assay type: functional
# [9] = system: Escherichia coli; experiment: Antibacterial activity against Escherichia coli ATCC 25922 after 24 hrs by agar diffusion assay; assay type: functional, organism-based
Compound,inhibition zone (IZ) [1] [mm],inhibition zone (IZ) [2] [mm],inhibition zone (IZ) [3] [mm],inhibition zone (IZ) [4] [mm],LC50 at 48 h [5] [µg/mL],inhibition zone (IZ) [6] [mm],Activity [7],inhibition zone (IZ) [8] [mm],Activity [9]
COC1=C(C)C(=O)c2cc(=O)n(C)c(C)c2C1=O [MIMOSAMYCIN],18,15,,,,,,,
C=C[C@@]1(C)CC[C@H](C2=CC[C@H](C(C)(C)O)OC2=O)C[C@@H]1C(=C)C [LOBATRIENOLIDE],13,9,15,6,,,,,
C=C[C@@]1(C)CC[C@H](/C(C)=C/C[C@H]2OC2(C)C)C[C@@H]1C(=C)C,0,0,5,0,0.64,,,,
C=C[C@@]1(C)CC[C@H](/C(=C/C[C@@H](OC(C)=O)C(C)(C)O)COC(C)=O)C[C@@H]1C(=C)C,13,10,15,5,60.4,,,,
C=C[C@@]1(C)CC[C@H](/C(C)=C/C[C@@H](O)C(C)(C)O)C[C@@H]1C(=C)C,14,9,17,6,10.5,,,,
C=C[C@@]1(C)CC[C@H](/C(C)=C/C[C@@H](OC(C)=O)C(C)(C)O)C[C@@H]1C(=C)C,9,5,13,2,19.1,,,,
C=C[C@@]1(C)CC[C@H](/C(C)=C/C=C/C(C)(C)O)C[C@@H]1C(=C)C [FUSCOL],0,0,2,0,4.18,,,,
C=C[C@@]1(C)CC[C@H](/C(=C/C[C@@H](O)C(C)(C)O)COC(C)=O)C[C@@H]1C(=C)C,20,10,30,5,59,,,,
C=C[C@@]1(C)CC[C@H](C2=CCC(O)C(C)(C)OC2)C[C@@H]1C(=C)C (stereo partly drawn),14,10,17,5,,,,,
C=C[C@@]1(C)CC[C@H](C2=CC[C@H](C(C)(C)OC(C)=O)OC2)C[C@@H]1C(=C)C,10,8,,6,34,,,,
C=C[C@@]1(C)CC[C@H](C2=CC[C@H](C(C)(C)O)OC2)C[C@@H]1C(=C)C [LOBATRIENE],14,10,15,5,19.8,8,inactive,7,inactive

# — ChEMBL document CHEMBL1150872, “Four new bioactive lobane diterpenes of the soft coral Lobophytum pauciflorum from Mindoro, Philippines” (J Nat Prod, 1998)
